Source: PubChem BioAssay (NCI)
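Test compounds were applied to cells in 96-well plates for 48 hours at 5 doses. Abbreviation: GI50, concentration required for 50% inhibition of growth. At the TGI there is no net growth.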

What was measured:
Assay in all cases: NCI tumour cell line growth inhibition, 48 h
786-0 renal = system: 786-0 renal
A498 renal = system: A498 renal
A549 NSCLC = system: A549 NSCLC
ACHN renal = system: ACHN renal
BT-549 breast = system: BT-549 breast
CAKI-1 renal = system: CAKI-1 renal
CCRF-CEM leukemia = system: CCRF-CEM leukemia
COLO 205 colon = system: COLO 205 colon
DU-145 prostate = system: DU-145 prostate
EKVX NSCLC = system: EKVX NSCLC
HCC-2998 colon = system: HCC-2998 colon
HCT-116 colon = system: HCT-116 colon
HCT-15 colon = system: HCT-15 colon
HOP-62 NSCLC = system: HOP-62 NSCLC
HOP-92 NSCLC = system: HOP-92 NSCLC
HS 578T breast = system: HS 578T breast
HT29 colon = system: HT29 colon
IGROV1 ovarian = system: IGROV1 ovarian
K-562 leukemia = system: K-562 leukemia
KM12 colon = system: KM12 colon
M14 melanoma = system: M14 melanoma
MALME-3M melanoma = system: MALME-3M melanoma
MCF7 breast = system: MCF7 breast
MDA-MB-231 breast = system: MDA-MB-231 breast
MDA-MB-435 = system: MDA-MB-435
MDA-N = system: MDA-N
MOLT-4 leukemia = system: MOLT-4 leukemia
NCI-H226 lung = system: NCI-H226 lung
NCI-H23 lung = system: NCI-H23 lung
NCI-H460 lung = system: NCI-H460 lung
NCI-H522 lung = system: NCI-H522 lung
NCI/ADR-RES ovarian = system: NCI/ADR-RES ovarian
OVCAR-3 ovarian = system: OVCAR-3 ovarian
OVCAR-4 ovarian = system: OVCAR-4 ovarian
OVCAR-5 ovarian = system: OVCAR-5 ovarian
OVCAR-8 ovarian = system: OVCAR-8 ovarian
PC-3 prostate = system: PC-3 prostate
RPMI-8226 leukemia = system: RPMI-8226 leukemia
RXF 393 renal = system: RXF 393 renal
SF-268 CNS = system: SF-268 CNS
SF-295 CNS = system: SF-295 CNS
SF-539 CNS = system: SF-539 CNS
SK-MEL-2 melanoma = system: SK-MEL-2 melanoma
SK-MEL-28 melanoma = system: SK-MEL-28 melanoma
SK-MEL-5 melanoma = system: SK-MEL-5 melanoma
SK-OV-3 ovarian = system: SK-OV-3 ovarian
SN12C renal = system: SN12C renal
SNB-19 CNS = system: SNB-19 CNS
SNB-75 CNS = system: SNB-75 CNS
SW-620 colon = system: SW-620 colon
T-47D breast = system: T-47D breast
TK-10 renal = system: TK-10 renal
U251 CNS = system: U251 CNS
UACC-257 melanoma = system: UACC-257 melanoma
UO-31 renal = system: UO-31 renal
HL-60(TB) leukemia = system: HL-60(TB) leukemia
LOX IMVI melanoma = system: LOX IMVI melanoma
UACC-62 melanoma = system: UACC-62 melanoma

C=CC(O)(CBr)CCC(Br)C(C)(C)Cl (stereo not drawn)
TGI (786-0 renal): > 10 µM | TGI (A498 renal): > 10 µM | TGI (A549 NSCLC): > 10 µM | TGI (ACHN renal): > 10 µM | TGI (BT-549 breast): > 10 µM | TGI (CAKI-1 renal): > 10 µM | TGI (CCRF-CEM leukemia): > 10 µM | TGI (COLO 205 colon): > 10 µM | TGI (DU-145 prostate): > 10 µM | TGI (EKVX NSCLC): > 10 µM | TGI (HCC-2998 colon): > 10 µM | TGI (HCT-116 colon): > 10 µM | TGI (HCT-15 colon): > 10 µM | TGI (HOP-62 NSCLC): > 10 µM | TGI (HOP-92 NSCLC): > 10 µM | TGI (HS 578T breast): > 10 µM | TGI (HT29 colon): > 10 µM | TGI (IGROV1 ovarian): > 10 µM | TGI (K-562 leukemia): > 10 µM | TGI (KM12 colon): > 10 µM | TGI (M14 melanoma): > 10 µM | TGI (MALME-3M melanoma): > 10 µM | TGI (MCF7 breast): > 10 µM | TGI (MDA-MB-231 breast): > 10 µM | TGI (MDA-MB-435): > 10 µM | TGI (MDA-N): > 10 µM | TGI (MOLT-4 leukemia): > 10 µM | TGI (NCI-H226 lung): > 10 µM | TGI (NCI-H23 lung): > 10 µM | TGI (NCI-H460 lung): > 10 µM | TGI (NCI-H522 lung): > 10 µM | TGI (NCI/ADR-RES ovarian): > 10 µM | TGI (OVCAR-3 ovarian): > 10 µM | TGI (OVCAR-4 ovarian): > 10 µM | TGI (OVCAR-5 ovarian): > 10 µM | TGI (OVCAR-8 ovarian): > 10 µM | TGI (PC-3 prostate): > 10 µM | TGI (RPMI-8226 leukemia): > 10 µM | TGI (RXF 393 renal): > 10 µM | TGI (SF-268 CNS): > 10 µM | TGI (SF-295 CNS): > 10 µM | TGI (SF-539 CNS): > 10 µM | TGI (SK-MEL-2 melanoma): > 10 µM | TGI (SK-MEL-28 melanoma): > 10 µM | TGI (SK-MEL-5 melanoma): > 10 µM | TGI (SK-OV-3 ovarian): > 10 µM | TGI (SN12C renal): > 10 µM | TGI (SNB-19 CNS): > 10 µM | TGI (SNB-75 CNS): > 10 µM | TGI (SW-620 colon): > 10 µM | TGI (T-47D breast): > 10 µM | TGI (TK-10 renal): > 10 µM | TGI (U251 CNS): > 10 µM | TGI (UACC-257 melanoma): > 10 µM | TGI (UO-31 renal): > 10 µM

COC(=O)C1=C(C(=O)OC)SC2(S1)C1=C(CCC1)SC(C(=O)OC)=C2C(=O)OC
TGI (A498 renal): 22.7 µM | TGI (A549 NSCLC): 32.8 µM | TGI (ACHN renal): 24.8 µM | TGI (BT-549 breast): 31.3 µM | TGI (CAKI-1 renal): 18.1 µM | TGI (CCRF-CEM leukemia): 12.5 µM | TGI (COLO 205 colon): 42 µM | TGI (DU-145 prostate): 15.8 µM | TGI (EKVX NSCLC): 29 µM | TGI (HCC-2998 colon): 33 µM | TGI (HCT-116 colon): 3.65 µM | TGI (HCT-15 colon): 21.5 µM | TGI (HL-60(TB) leukemia): > 100 µM | TGI (HOP-62 NSCLC): 26.2 µM | TGI (HOP-92 NSCLC): 22.5 µM | TGI (HS 578T breast): 35.4 µM | TGI (HT29 colon): 18.5 µM | TGI (IGROV1 ovarian): 26.6 µM | TGI (K-562 leukemia): > 100 µM | TGI (KM12 colon): 32.1 µM | TGI (LOX IMVI melanoma): 15.3 µM | TGI (M14 melanoma): 35.3 µM | TGI (MALME-3M melanoma): 36 µM | TGI (MCF7 breast): 22.4 µM | TGI (MDA-MB-231 breast): 33.4 µM | TGI (MDA-MB-435): 26 µM | TGI (MDA-N): 29.6 µM | TGI (MOLT-4 leukemia): 16.8 µM | TGI (NCI-H23 lung): 37 µM | TGI (NCI-H460 lung): 20.2 µM | TGI (NCI-H522 lung): 9.08 µM | TGI (NCI/ADR-RES ovarian): 39 µM | TGI (OVCAR-3 ovarian): 24.6 µM | TGI (OVCAR-4 ovarian): 28.9 µM | TGI (OVCAR-5 ovarian): 34.6 µM | TGI (OVCAR-8 ovarian): 24.6 µM | TGI (PC-3 prostate): 23.3 µM | TGI (RPMI-8226 leukemia): > 100 µM | TGI (RXF 393 renal): 16.7 µM | TGI (SF-268 CNS): 34.4 µM | TGI (SF-295 CNS): 28.9 µM | TGI (SF-539 CNS): 4.32 µM | TGI (SK-MEL-2 melanoma): 35.8 µM | TGI (SK-MEL-28 melanoma): 25.3 µM | TGI (SK-MEL-5 melanoma): 36 µM | TGI (SK-OV-3 ovarian): 30.5 µM | TGI (SN12C renal): 23.4 µM | TGI (SNB-19 CNS): 36.8 µM | TGI (SW-620 colon): 37.5 µM | TGI (T-47D breast): 46.3 µM | TGI (TK-10 renal): 29.1 µM | TGI (U251 CNS): 29.2 µM | TGI (UACC-257 melanoma): 31.8 µM | TGI (UACC-62 melanoma): 34 µM | TGI (UO-31 renal): 22.7 µM

COc1ccccc1-c1cc(=O)c2c(C)cc(C)nc2[nH]1
GI50 (786-0 renal): > 100 µM | TGI (786-0 renal): > 100 µM | TGI (A498 renal): > 100 µM | TGI (A549 NSCLC): > 100 µM | TGI (ACHN renal): > 100 µM | TGI (BT-549 breast): > 100 µM | TGI (CAKI-1 renal): > 100 µM | TGI (CCRF-CEM leukemia): > 100 µM | TGI (COLO 205 colon): > 100 µM | TGI (DU-145 prostate): > 100 µM | TGI (EKVX NSCLC): > 100 µM | TGI (HCC-2998 colon): > 100 µM | GI50 (HCT-116 colon): 74.5 µM | TGI (HCT-116 colon): > 100 µM | TGI (HCT-15 colon): > 100 µM | GI50 (HL-60(TB) leukemia): 30.4 µM | TGI (HL-60(TB) leukemia): > 100 µM | TGI (HOP-62 NSCLC): > 100 µM | TGI (HOP-92 NSCLC): 94.4 µM | TGI (HS 578T breast): > 100 µM | TGI (HT29 colon): > 100 µM | TGI (IGROV1 ovarian): > 100 µM | TGI (K-562 leukemia): > 100 µM | TGI (KM12 colon): > 100 µM | TGI (LOX IMVI melanoma): > 100 µM | TGI (M14 melanoma): > 100 µM | TGI (MALME-3M melanoma): > 100 µM | TGI (MCF7 breast): > 100 µM | TGI (MDA-MB-231 breast): > 100 µM | GI50 (MDA-MB-435): 32.1 µM | TGI (MDA-MB-435): > 100 µM | GI50 (MDA-N): 33.2 µM | TGI (MDA-N): > 100 µM | TGI (MOLT-4 leukemia): > 100 µM | TGI (NCI-H226 lung): > 100 µM | TGI (NCI-H23 lung): > 100 µM | GI50 (NCI-H460 lung): 70.1 µM | TGI (NCI-H460 lung): > 100 µM | TGI (NCI-H522 lung): > 100 µM | TGI (NCI/ADR-RES ovarian): > 100 µM | GI50 (OVCAR-3 ovarian): 64.2 µM | TGI (OVCAR-3 ovarian): > 100 µM | TGI (OVCAR-4 ovarian): > 100 µM | TGI (OVCAR-5 ovarian): > 100 µM | TGI (OVCAR-8 ovarian): > 100 µM | GI50 (PC-3 prostate): 48.3 µM | TGI (PC-3 prostate): > 100 µM | TGI (RPMI-8226 leukemia): > 100 µM | TGI (RXF 393 renal): > 100 µM | TGI (SF-268 CNS): > 100 µM | GI50 (SF-295 CNS): 53.1 µM | TGI (SF-295 CNS): > 100 µM | TGI (SF-539 CNS): > 100 µM | TGI (SK-MEL-2 melanoma): > 100 µM | TGI (SK-MEL-28 melanoma): > 100 µM | GI50 (SK-MEL-5 melanoma): 33.7 µM | TGI (SK-MEL-5 melanoma): > 100 µM | TGI (SK-OV-3 ovarian): > 100 µM | TGI (SN12C renal): > 100 µM | TGI (SNB-19 CNS): > 100 µM | TGI (SW-620 colon): > 100 µM | TGI (T-47D breast): > 100 µM | TGI (TK-10 renal): > 100 µM | GI50 (U251 CNS): > 100 µM | TGI (U251 CNS): > 100 µM | TGI (UACC-257 melanoma): > 100 µM | TGI (UACC-62 melanoma): > 100 µM | TGI (UO-31 renal): > 100 µM
